Measured values taken from patent US20230373937A1, “INHIBITORS OF SPINSTER HOMOLOG 2 (SPNS2) FOR USE IN THERAPY” (University of Virginia Patent Foundation, priority 2020, published 2023).
Counter-ions that a name gives are not always drawn.

Each compound was assayed against T1, SPNS2 (Mus musculus, UniProt Q91VM4) (assay: S1P transporter assay: S1P release from whole cells expressing SPNS2). Conditions: HeLa or U937 cells expressing mouse SPNS2; 18 hours; S1P in media measured by LC-MS; read-out: IC50 (in vitro inhibition against SPNS2).
T1 construct: expressed in transfected cells; host or cells: HeLa or U937 cells
T1 sequence (Q91VM4 1-549): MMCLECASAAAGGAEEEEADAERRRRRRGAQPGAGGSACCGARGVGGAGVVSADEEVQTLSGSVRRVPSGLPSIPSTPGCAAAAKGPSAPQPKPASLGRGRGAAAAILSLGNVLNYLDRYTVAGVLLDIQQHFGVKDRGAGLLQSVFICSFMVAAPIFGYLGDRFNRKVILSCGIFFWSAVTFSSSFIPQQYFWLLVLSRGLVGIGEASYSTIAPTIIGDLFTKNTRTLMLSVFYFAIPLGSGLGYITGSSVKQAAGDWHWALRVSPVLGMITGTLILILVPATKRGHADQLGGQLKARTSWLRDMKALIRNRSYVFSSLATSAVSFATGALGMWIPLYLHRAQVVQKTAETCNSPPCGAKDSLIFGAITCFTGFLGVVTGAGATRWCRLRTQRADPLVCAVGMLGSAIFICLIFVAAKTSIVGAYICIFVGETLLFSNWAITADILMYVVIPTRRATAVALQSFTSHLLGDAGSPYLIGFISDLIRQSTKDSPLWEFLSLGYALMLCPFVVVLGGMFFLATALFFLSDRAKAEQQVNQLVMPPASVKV
Format: cell-based
Method: Transporter assays are vectorial and therefore require measurement of the transported analyte in different compartments. The S1P transporter SPNS2 only exports S1P, which obviates measuring uptake of S1P into transporter-expressing cells. Thus, transporter activity was determined by quantifying S1P release from whole cells expressing SPNS2. SPNS2 inhibitor potency was assessed using whole cell assays. HeLa or U937 cells expressing mouse SPNS2 were used to determine inhibitor potency (IC50). Cells were plated onto 12 well plates and assayed when the cell monolayers became confluent. Cell growth media (RPMI-1640 containing 10% fetal bovine serum) was replaced with 2 mL of serum-free media (RPMI-1640) containing fatty acid free bovine serum albumin (BSA) (0.2% w/v) and supplemented with 4-deoxypyridoxine (DOP) (1 mM), NaF (2 mM), Na3VO4 (0.2 mM) to inhibit S1P degradation. Test articles (1×10-9-1×10^-4 M) were assayed in duplicate or triplicate. After 18 hours, media was collected, an internal recovery standard (0.005 mL of 5×10^-7 M deuterated (d7) S1P in methanol) was added, the BSA was precipitated with trichloroacetic acid and the bound S1P extracted with methanol. S1P and S1P-d7 were measured by liquid chromatography mass spectrometry. Inhibitor potency at the human SPNS2 ortholog was determined by an analogous assay using U-937 cells, which endogenously express human SPNS2.

`CCCCCCCCCCc1ccc(-c2noc(CNC(=O)[C@H]3CCCCN3)n2)cc1` [Compound 9t, (R)—N-((3-(4-decylphenyl)-1,2,4-oxadiazol-5-yl)methyl)piperidine-2-carboxamide hydrochloride] was tested. Which IC50 did it give?
The IC50 was > 2 µM.

How did the IC50 turn out when `CCCCCCCCCCc1ccc(-c2noc(CNC(=O)C3CCCCCN3)n2)cc1` (stereo not shown) [Compound 9u, N-((3-(4-decylphenyl)-1,2,4-oxadiazol-5-yl)methyl)azepane-2-carboxamide hydrochloride] was run?
Its IC50 is ≤ 2 µM.

With `CCCCCCCCCCc1ccc(-c2noc(CNC(=O)[C@@H]3C[C@H](O)CN3)n2)cc1` [Compound 9v, (2S,4S)—N-((3-(4-decylphenyl)-1,2,4-oxadiazol-5-yl)methyl)-4-hydroxypyrrolidine-2-carboxamide hydrochloride] as the compound, how does the IC50 read?
The IC50 was > 2 µM.

How did the IC50 turn out when `CCCCCCCCCCc1ccc(-c2noc(CNC(=O)[C@@H]3C[C@@H](O)CN3)n2)cc1` [Compound 9w, (2S,4R)—N-((3-(4-decylphenyl)-1,2,4-oxadiazol-5-yl)methyl)-4-hydroxypyrrolidine-2-carboxamide hydrochloride] was run?
Its IC50 is > 2 µM.

With `CCCCCCCCCCc1ccc(-c2noc(CNC(=O)[C@H]3CCNC3)n2)cc1` [Compound 9x, (S)—N-((3-(4-decylphenyl)-1,2,4-oxadiazol-5-yl)methyl)pyrrolidine-3-carboxamide hydrochloride] as the compound, how does the IC50 read?
Its IC50 is > 2 µM.

With `CCCCCCCCCCc1ccc(-c2noc(CNC(=O)C[C@@H](O)CN)n2)cc1` [Compound 9y, (R)-4-amino-N-((3-(4-decylphenyl)-1,2,4-oxadiazol-5-yl)methyl)-3-hydroxybutanamide hydrochloride] as the compound, how does the IC50 read?
The IC50 was > 2 µM.

`CCCCCCCCCCc1ccc(-c2noc(CNC(=O)[C@@H]3CCN3)n2)cc1` [Compound 9z, (S)—N-((3-(4-decylphenyl)-1,2,4-oxadiazol-5-yl)methyl)azetidine-2-carboxamide 2,2,2-trifluoroacetate] was tested. Which IC50 did it give?
The IC50 was ≤ 2 µM.

How did the IC50 turn out when `CCCCNC(=O)c1ccc(-c2noc([C@@H]3CCNC3)n2)cc1` [Compound 13a, (R)—N-butyl-4-(5-(pyrrolidin-3-yl)-1,2,4-oxadiazol-3-yl)benzamide hydrochloride] was run?
Its IC50 is > 2 µM.

With `CCCCNC(=O)c1ccc(-c2noc(CCCN)n2)cc1` [Compound 13b, 4-(5-(3-aminopropyl)-1,2,4-oxadiazol-3-yl)-N-butylbenzamide hydrochloride] as the compound, how does the IC50 read?
Its IC50 is > 2 µM.

For `CCCCCCCCNC(=O)c1ccc(-c2noc([C@@H]3CCNC3)n2)cc1` [Compound 13c, (R)—N-octyl-4-(5-(pyrrolidin-3-yl)-1,2,4-oxadiazol-3-yl)benzamide hydrochloride], which IC50 is on record?
Its IC50 is > 2 µM.

`CCCCCCCCNC(=O)c1ccc(-c2noc(CCCN)n2)cc1` [Compound 13d, 4-(5-(3-aminopropyl)-1,2,4-oxadiazol-3-yl)-N-octylbenzamide hydrochloride] was tested. Which IC50 did it give?
The IC50 was > 2 µM.

With `CCCCCCCCCCc1ccc(-c2noc(C(=O)NCCN)n2)cc1` [Compound 16a, N-(2-aminoethyl)-3-(4-decylphenyl)-1,2,4-oxadiazole-5-carboxamide hydrochloride] as the compound, how does the IC50 read?
The IC50 was ≤ 2 µM.

`CCCCCCCCCCc1ccc(-c2noc(C(=O)NCCCN)n2)cc1` [Compound 16b, N-(3-aminopropyl)-3-(4-decylphenyl)-1,2,4-oxadiazole-5-carboxamide hydrochloride] was tested. Which IC50 did it give?
The IC50 was > 2 µM.

How did the IC50 turn out when `CCCCCCCCCCc1ccc(-c2noc([C@@H](N)CCCCN)n2)cc1` [Compound 19a, (S)-1-(3-(4-decylphenyl)-1,2,4-oxadiazol-5-yl)pentane-1,5-diamine hydrochloride] was run?
Its IC50 is ≤ 2 µM.

With `CCCCCCCCCCc1ccc(-c2noc([C@@H](N)CCCN)n2)cc1` [Compound 19b, (S)-1-(3-(4-decylphenyl)-1,2,4-oxadiazol-5-yl)butane-1,4-diamine dihydrochloride] as the compound, how does the IC50 read?
Its IC50 is > 2 µM.

`CCCCCCCCCCc1ccc(-c2noc([C@@H](N)CCN)n2)cc1` [Compound 19c, (S)-1-(3-(4-decylphenyl)-1,2,4-oxadiazol-5-yl)propane-1,3-diamine dihydrochloride] was tested. Which IC50 did it give?
The IC50 was ≤ 2 µM.

Which IC50 does the source give for `CCCCCCCCCCc1ccc(-c2noc([C@H](N)CCCCN)n2)cc1` [Compound 19d, (R)-1-(3-(4-decylphenyl)-1,2,4-oxadiazol-5-yl)pentane-1,5-diamine dihydrochloride] here?
The IC50 was > 2 µM.

For `CCCCCCCCCCc1ccc(-c2noc([C@H](CCCCN)NC(C)=O)n2)cc1` [Compound 21, (S)—N-(5-amino-1-(3-(4-decylphenyl)-1,2,4-oxadiazol-5-yl)pentyl)acetamide hydrochloride], which IC50 is on record?
Its IC50 is > 2 µM.

`C/C(=N\OCCCCc1ccccc1)c1ccc(-c2noc(CCCN)n2)cc1` [Compound 28, 1-(4-(5-(3-aminopropyl)-1,2,4-oxadiazol-3-yl)phenyl)ethan-1-one 0-(4-phenylbutyl) oxime hydrochloride] was tested. Which IC50 did it give?
The IC50 was > 2 µM.
